# Results taken from the RepoRT retention time repository.
# Assay: Waters ACQUITY UPLC BEH C18, 100 × 2.1 mm, 1.7 µm, 40 °C, 0.3 to 0.4 mL/min, estimated dead time 0.63 min; A: water + 0.1% formic acid; B: methanol + 0.1% formic acid; gradient (min/%B) 0/0.5 0.1/0.5 10/80 10.1/99.5 12/99.5
# Conditions: stereoisomer not certain
row,SMILES,LC retention time [min]
1,CCN1CC2(OC(=O)c3ccccc3N)CCC(OC)C34C1C(CC23)C1(O)CC(OC)C2CC4C1(O)C2OC (centres undefined),4.95
2,O=C(C=Cc1ccc(O)c(O)c1)OC1CC(OC(=O)C=Cc2ccc(O)c(O)c2)(C(=O)O)CC(O)C1O (centres undefined),3.49
3,COc1c(CC=C(C)C)c(O)cc2c1C1Oc3cc(O)c(CC=C(C)C)cc3C1CO2 (centres undefined),9.29
4,CC(=O)c1cccc2oc(=O)[nH]c12,3.93
5,O=C(O)CCCCCCC(=O)O,4.1
6,CC1=NCCc2c1[nH]c1cc(O)ccc21,3.06
7,O=C(C=Cc1ccc(O)cc1)OCC1OC(OC2C(c3c(O)cc4oc(-c5ccc(O)c(O)c5)cc(=O)c4c3O)OC(CO)C(O)C2O)C(O)C(O)C1O (centres undefined),3.81
8,CC=C1CN2C3CC1C(CO)C2Cc1c3[nH]c2ccccc12 (centres undefined),3.58
9,CCCCCCCCCCCCC(O)C(O)C(COC1OC(CC(C(=O)O)C(=O)O)C(O)C(O)C1O)NC(C)=O (centres undefined),4.79
10,O=c1ccc2ccc(O)c(O)c2o1,3.65
11,CC1OC(OC2C(Oc3cc(O)c4c(=O)cc(-c5ccc(O)cc5)oc4c3)OC(CO)C(O)C2O)C(O)C(O)C1O (centres undefined),4.34
12,OCC1OC(OCC2OC(O)(CO)C(O)C2O)C(O)C(O)C1O (centres undefined),1.74
13,O=C(C=Cc1ccc(O)cc1)OCC1OC(Oc2c(-c3ccc(O)cc3)oc3cc(O)cc(O)c3c2=O)C(O)C(O)C1O (centres undefined),5.21
14,CS(=O)CCCCCCCCC(=O)O (centres undefined),4.43
15,CC(C)C(O)(CC(=O)O)C(=O)O (centres undefined),3.25
16,O=c1c(-c2ccc(O)cc2)coc2cc(OC3OC(CO)C(O)C(O)C3O)ccc12 (centres undefined),3.65
17,COc1ccc(-c2coc3cc(OC4OC(COC(=O)CC(=O)O)C(O)C(O)C4O)ccc3c2=O)cc1 (centres undefined),5.43
18,CC=C1CC(C)C(O)(CO)C(=O)OCC2=CCN3CCC(OC1=O)C23 (centres undefined),3.23
19,NCCCCNC(=O)c1ccccc1,2.71
20,COc1cc(-c2oc3cc(OC4OC(C)C(O)C(O)C4O)cc(O)c3c(=O)c2O)ccc1O (centres undefined),3.72
21,CC1CCC2C(C)C3C(CC4C5CC=C6CC(OC7OC(CO)C(O)C(OC8OC(CO)C(O)C(O)C8O)C7O)CCC6(C)C5CCC43C)N2C1 (centres undefined),4.65
22,OCC1OC(Oc2cc3c(O)cc(O)cc3[o+]c2-c2cc(O)c(O)c(O)c2)C(OC2OCC(O)C(O)C2O)C(O)C1O (centres undefined),2.65
23,CC1(C)CCC2(C(=O)OC3OC(CO)C(O)C(O)C3O)CCC3(C)C(=CCC4C5(C)CCC(OC6OC(C(=O)O)C(OC7OC(CO)C(O)C7O)C(O)C6O)C(C)(C)C5CCC43C)C2C1 (centres undefined),6.39
24,COC(=O)C1CC23CCC[N+]4([O-])CCC5(c6ccccc6NC15CC2)C34 (centres undefined),4.18
25,O=C1CC(c2ccccc2O)Oc2ccccc21 (centres undefined),7.45
26,CC1OC(OCC2OC(Oc3cc4c(O)cc(O)cc4[o+]c3-c3ccc(O)c(O)c3)C(OC3OC(CO)C(O)C(O)C3O)C(O)C2O)C(O)C(O)C1O (centres undefined),2.75
27,CC1OC(OC2C(CO)OC(OC3CCC4(C)C(=CC(O)C5C4CCC4(C)C5CC5OC6(CCC(C)(COC7OC(CO)C(O)C(O)C7O)O6)C(C)C54)C3)C(OC3OC(C)C(O)C(O)C3O)C2O)C(O)C(O)C1O (centres undefined),4.5

row,SMILES,LC retention time [min]
1,CC(C)=CCCC(C)(O)C1CCC2(C)C1C(O)CC1C3(C)CCC(O)C(C)(C)C3C(OC3OC(CO)C(O)C(O)C3OC3OC(CO)C(O)C(O)C3O)CC12C (centres undefined),5.94
2,O=c1c(OC2OCC(O)C(O)C2O)c(-c2ccc(O)cc2)oc2cc(O)cc(O)c12 (centres undefined),4.47
3,CC1(C)CC(=O)C2(C)CCC3(C)C(=CCC4C5(C)CCC(OC6OC(C(=O)O)C(O)C(O)C6OC6OC(CO)C(O)C(O)C6O)C(C)(CO)C5CCC43C)C2C1 (centres undefined),7.84
4,CC(=O)N1CC(C)CCC12OC1CC3C4CC=C5CC(O)CCC5(C)C4CCC3(C)C1C2C (centres undefined),7.36
5,O=c1cc(-c2ccc(O)c(O)c2)oc2cc(O)c(C3OC(CO)C(O)C(O)C3OC3OC(CO)C(O)C(O)C3O)c(O)c12 (centres undefined),3.44
6,COc1ccc(C2CC(=O)c3c(O)cc(OC4OC(COC5OC(C)C(O)C(O)C5O)C(O)C(O)C4O)cc3O2)cc1O (centres undefined),4.51
7,CC(C)CC(NC(=O)Cc1c[nH]c2ccccc12)C(=O)O (centres undefined),6.2
8,COc1cc(-c2cc(=O)c3c(O)cc(OC4OC(C(=O)O)C(O)C(O)C4O)cc3o2)cc(OC)c1O (centres undefined),4.54
9,CN1CCC23c4ccccc4NC1C21CCN(C)C3Nc2ccccc21,2.57
10,COc1cc(C=CC(=O)NCCCCN=C(N)N)ccc1O,3.22
11,COc1cc(-c2cc(=O)c3c(O)cc(OC4OC(CO)C(O)C(O)C4OC4OC(C)C(O)C(O)C4O)cc3o2)cc(OC)c1O (centres undefined),4.36
12,CC=CS(=O)CC(NC(=O)CCC(N)C(=O)O)C(=O)O (centres undefined),1.79
13,O=S(=O)(O)ON=C(CC(O)c1ccccc1)SC1OC(CO)C(O)C(O)C1O (centres undefined),2.71
14,CCN1CC2(COC(=O)c3ccccc3N)CCC(OC)C34C5CC6C(OC)CC(O)(C5C6OC)C(O)(C(OC)C23)C14 (centres undefined),5.5
15,NC(CCC(=O)NC(Cc1ccc(O)cc1)C(=O)O)C(=O)O (centres undefined),2.36
16,CC(C)=CCc1cc(C(O)=CC(=O)c2cc(CC=C(C)C)c(O)cc2O)ccc1O,9.52
17,COc1cc(C=CC(=O)OC2OC(CO)C(O)C(O)C2O)cc(OC)c1O (centres undefined),3.54
18,OCCc1c[nH]c2ccccc12,3.06
19,CN(C)Cc1c[nH]c2ccccc12,3.06
20,CC(C)=CCCC(C)(OC1OC(COC2OC(CO)C(O)C2O)C(O)C(O)C1O)C1CCC2(C)C1C(O)CC1C3(C)CCC(OC4OC(CO)C(O)C(O)C4OC4OC(CO)C(O)C(O)C4O)C(C)(C)C3CCC12C (centres undefined),6.01
21,O=S(=O)(O)ON=C(Cc1ccccc1)SC1OC(CO)C(O)C(O)C1O (centres undefined),2.83
22,Nc1ccc(C(=O)NC(CCC(=O)O)C(=O)O)cc1 (centres undefined),3.22
23,CC1OC(Oc2cc(O)c3c(=O)c(O)c(-c4ccc(O)cc4)oc3c2)C(O)C(O)C1O (centres undefined),5.28
24,O=C1CC(c2ccccc2)Oc2ccc(O)cc21 (centres undefined),7.17
25,COc1cc(C=CC(=O)NCCCCN)ccc1O,2.7
26,COc1ccc2cc1Oc1ccc(cc1)CC1=NCCc3cc(OC)c(cc31)Oc1c(OC)c(OC)c([O-])c3c1C(C2)[NH+](C)CC3 (centres undefined),3.96
27,CC1(C)CCC2(C(=O)OC3OC(CO)C(O)C(O)C3O)CCC3(C)C(=CCC4C5(C)CCC(OC6OC(C(=O)O)C(O)C(O)C6OC6OC(CO)C(O)C(O)C6O)C(C)(C)C5CCC43C)C2C1 (centres undefined),6.18

row,SMILES,LC retention time [min]
1,O=c1cc(-c2ccc(O)cc2)oc2cc(OC3OC(CO)C(O)C(O)C3O)c(O)c(O)c12 (centres undefined),4.13
2,COC(=O)C1=C2Nc3ccccc3C23CCN2C4OC56C7CC4(CN5c4c(OC)cccc4C64CCN5CCC6OCCC6(C7)C54)C4OCCC4(C1)C23 (centres undefined),5.79
3,COc1cc(-c2[o+]c3cc(O)cc(O)c3cc2OC2OC(CO)C(O)C(O)C2O)cc(O)c1O (centres undefined),3.21
4,COc1cc(C=CC=O)ccc1O,4.76
5,C=C1C2CC3(C1O)C1CC4C5(C)CCC(O)C4(C1N(CC)C5)C3CC2O (centres undefined),3.05
6,COc1cc(C=CC(=O)OC2C(OC3COC(c4c(O)cc5oc(-c6ccc(O)cc6)cc(=O)c5c4O)C(O)C3O)OC(CO)C(O)C2O)ccc1O (centres undefined),4.71
7,COc1ccc2c(c1)OC1c3ccc(O)cc3OCC21 (centres undefined),5.92
8,CC1OC(Oc2cc3c(O)cc(O)cc3[o+]c2-c2ccc(O)c(O)c2)C(O)C(O)C1O (centres undefined),3.18
9,CC1OC(OC2C(OC3C(OC4CCC5(C)C(CCC6(C)C5CC=C5C7CC(C)(C)C(OC8OC(C)C(O)C(O)C8O)CC7(C)CCC56C)C4(C)CO)OC(C(=O)O)C(O)C3O)OC(C(=O)O)C(O)C2O)C(O)C(O)C1O (centres undefined),5.68
10,CCCCCC=CCC=CCCCCCCCC(=O)OCC(O)COP(=O)(O)OCCN (centres undefined),9.24
11,O=C(C=Cc1ccc(O)c(O)c1)OC1CC2(O)CC(OC2=O)C1OC(=O)C=Cc1ccc(O)c(O)c1 (centres undefined),4.54
12,CN1c2ccccc2C(=O)N2CCc3c([nH]c4ccccc34)C21 (centres undefined),7.77
13,COc1ccc(C=Cc2cc(OC)cc(OC)c2)cc1,9.6
14,COc1ccc2cc1Oc1ccc(cc1)CC1=NCCc3cc(OC)c(cc31)Oc1c(OC)c(OC)c(OC)c3c1C(C2)N(C)CC3 (centres undefined),4.25
15,CC(=O)OC1C(C)CNC2C(C)C3C(CC4C5CCC6CC(OC7OC(CO)C(OC8OC(CO)C(O)C(OC9OCC(O)C(O)C9O)C8OC8OC(CO)C(O)C(O)C8O)C(O)C7O)CCC6(C)C5CCC43C)OC21O (centres undefined),4.29
16,CC(CCC1(O)OC2CC3C4CC=C5CC(OC6OC(CO)C(O)C(OC7OC(CO)C(O)C(O)C7O)C6OC6OC(C)C(O)C(O)C6O)CCC5(C)C4CCC3(C)C2C1C)COC1OC(CO)C(O)C(O)C1O (centres undefined),4.99
17,CCC1CN2CCC3(O)C(=Nc4cccc(OC)c43)C2CC1C(=COC)C(=O)OC (centres undefined),4.26
18,CC=C1CN(C)C2CC3(C(=O)N(OC)c4ccccc43)C3CC1C2CO3 (centres undefined),4.63
19,COc1cc(C=CC(=O)NCCc2ccc(O)cc2)ccc1O,5.13
20,COc1cc(C=CC(=O)OC2CC(O)(C(=O)O)CC(O)C2O)ccc1O (centres undefined),3.71
21,CCC1CN2CCc3c([nH]c4ccccc34)C2CC1C(=COC)C(=O)OC (centres undefined),5.85
22,COc1ccc(Cc2nccc3cc(OC)c(OC)cc23)cc1OC,4.49
23,COc1cc(C(O)C(COC2OC(CO)C(O)C(O)C2O)Oc2c(OC)cc(-c3cc(=O)c4c(O)cc(O)cc4o3)cc2OC)ccc1O (centres undefined),4.57
24,CN1CCCCC1c1ccc(-c2cccnc2)nc1 (centres undefined),2.37
25,CN1c2cc(O)c(N=NC(N)=O)cc2CC1S(=O)(=O)O (centres undefined),2.69
